According to patent US8541588B2, “Sulfonamide derivatives” (Pfizer Limited, priority 2009, dated 2013):

target: T1, Nav1.7 (or SCN9A) channel; HEK cells stably transfected with hSCN9A (Homo sapiens, UniProt Q15858); test: Nav1.7 block, PatchXpress 7000 automated whole-cell voltage clamp, estimated IC50 (EIC50); assay type: cell-based; conditions: estimated IC50; hSCN9A HEK cells, PatchXpress platform; Examples 283-814
T1 construct: expressed in transfected cells
T1 sequence (Q15858 whole entry): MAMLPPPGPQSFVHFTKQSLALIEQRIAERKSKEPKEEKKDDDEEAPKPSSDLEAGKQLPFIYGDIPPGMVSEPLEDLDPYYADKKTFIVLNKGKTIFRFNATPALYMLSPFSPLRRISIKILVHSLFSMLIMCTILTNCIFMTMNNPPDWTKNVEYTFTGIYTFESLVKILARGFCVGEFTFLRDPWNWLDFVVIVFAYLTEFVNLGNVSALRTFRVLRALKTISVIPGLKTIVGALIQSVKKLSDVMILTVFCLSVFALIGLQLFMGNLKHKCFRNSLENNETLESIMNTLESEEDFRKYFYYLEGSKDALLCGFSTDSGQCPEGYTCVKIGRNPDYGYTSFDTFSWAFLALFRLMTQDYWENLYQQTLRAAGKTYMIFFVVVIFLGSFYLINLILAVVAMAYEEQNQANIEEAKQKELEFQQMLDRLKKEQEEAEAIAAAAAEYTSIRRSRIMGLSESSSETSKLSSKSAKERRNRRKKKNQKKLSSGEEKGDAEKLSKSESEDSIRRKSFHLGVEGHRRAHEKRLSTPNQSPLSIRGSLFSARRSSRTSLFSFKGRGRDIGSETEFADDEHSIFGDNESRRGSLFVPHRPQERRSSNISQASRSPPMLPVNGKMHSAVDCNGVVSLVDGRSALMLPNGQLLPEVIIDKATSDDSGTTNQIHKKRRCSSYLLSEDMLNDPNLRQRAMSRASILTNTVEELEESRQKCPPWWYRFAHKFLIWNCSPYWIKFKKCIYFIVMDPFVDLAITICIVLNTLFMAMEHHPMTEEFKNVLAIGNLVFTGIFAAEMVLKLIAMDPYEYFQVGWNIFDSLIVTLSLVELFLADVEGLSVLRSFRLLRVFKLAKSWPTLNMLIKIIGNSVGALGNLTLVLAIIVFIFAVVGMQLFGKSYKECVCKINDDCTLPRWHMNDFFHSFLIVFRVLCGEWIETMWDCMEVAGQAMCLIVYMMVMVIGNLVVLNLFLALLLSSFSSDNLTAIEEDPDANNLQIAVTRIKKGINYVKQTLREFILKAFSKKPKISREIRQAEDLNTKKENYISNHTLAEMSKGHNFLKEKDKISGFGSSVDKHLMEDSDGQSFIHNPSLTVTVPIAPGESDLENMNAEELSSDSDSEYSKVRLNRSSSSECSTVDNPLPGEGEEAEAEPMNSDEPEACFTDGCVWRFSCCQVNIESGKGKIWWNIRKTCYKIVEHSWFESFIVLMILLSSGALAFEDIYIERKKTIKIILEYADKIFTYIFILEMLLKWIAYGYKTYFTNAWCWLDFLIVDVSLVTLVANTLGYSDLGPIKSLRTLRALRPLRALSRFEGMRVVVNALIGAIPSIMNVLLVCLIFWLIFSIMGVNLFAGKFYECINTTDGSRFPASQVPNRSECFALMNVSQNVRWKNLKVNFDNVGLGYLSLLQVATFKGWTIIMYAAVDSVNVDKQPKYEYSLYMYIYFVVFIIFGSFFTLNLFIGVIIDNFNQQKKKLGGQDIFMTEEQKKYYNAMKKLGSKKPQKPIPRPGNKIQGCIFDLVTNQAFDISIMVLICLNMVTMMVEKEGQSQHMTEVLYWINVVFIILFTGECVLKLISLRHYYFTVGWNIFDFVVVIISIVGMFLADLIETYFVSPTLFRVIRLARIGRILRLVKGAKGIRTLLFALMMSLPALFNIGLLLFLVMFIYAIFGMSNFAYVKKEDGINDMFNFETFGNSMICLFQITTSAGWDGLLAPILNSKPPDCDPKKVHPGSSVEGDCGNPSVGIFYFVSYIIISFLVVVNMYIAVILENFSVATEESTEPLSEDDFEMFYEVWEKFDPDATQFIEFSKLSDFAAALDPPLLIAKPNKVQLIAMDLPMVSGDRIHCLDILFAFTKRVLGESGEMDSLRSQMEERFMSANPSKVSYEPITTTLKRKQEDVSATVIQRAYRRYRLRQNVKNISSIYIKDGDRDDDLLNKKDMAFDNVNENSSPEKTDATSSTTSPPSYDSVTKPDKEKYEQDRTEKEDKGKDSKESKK

Row | SMILES | IC50
1 | O=S(=O)(Nc1ncns1)c1cc(F)c(Oc2cc(Cl)c(F)cc2-c2cn[nH]c2)cc1F [Example 752, 4-[5-chloro-4-fluoro-2-(1H-pyrazol-4-yl)phenoxy]-2,5-difluoro-N-1,2,4-thiadiazol-5-ylbenzenesulfonamide] | 0.0021 µM
2 | O=S(=O)(Nc1ncns1)c1cc(F)c(Oc2cc(Cl)c(F)cc2-c2ccn[nH]2)cc1F [Example 753, 4-[5-chloro-4-fluoro-2-(1H-pyrazol-5-yl)phenoxy]-2,5-difluoro-N-1,2,4-thiadiazol-5-ylbenzenesulfonamide] | 0.0052 µM
3 | N#Cc1cc(S(=O)(=O)Nc2ncns2)ccc1Oc1cc(Cl)c(F)cc1-c1cn[nH]c1 [Example 754, 4-[5-chloro-4-fluoro-2-(1H-pyrazol-4-yl)phenoxy]-3-cyano-N-1,2,4-thiadiazol-5-ylbenzenesulfonamide] | 0.0053 µM
4 | O=S(=O)(Nc1ncns1)c1cc(Cl)c(Oc2ccc(F)cc2-c2cn[nH]c2)cc1F [Example 755, 5-chloro-2-fluoro-4-[4-fluoro-2-(1H-pyrazol-4-yl)phenoxy]-N-1,2,4-thiadiazol-5-ylbenzenesulfonamide] | 0.0024 µM
5 | O=S(=O)(Nc1ncns1)c1cc(F)c(Oc2ccc(F)cc2-c2cn[nH]c2)cc1F [Example 756, 2,5-difluoro-4-[4-fluoro-2-(1H-pyrazol-4-yl)phenoxy]-N-1,2,4-thiadiazol-5-ylbenzenesulfonamide] | 0.011 µM
6 | O=S(=O)(Nc1ncns1)c1cc(F)c(Oc2cc(F)c(Cl)cc2-c2cn[nH]c2)cc1F [Example 757, 4-[4-chloro-5-fluoro-2-(1H-pyrazol-4-yl)phenoxy]-2,5-difluoro-N-1,2,4-thiadiazol-5-ylbenzenesulfonamide] | 0.0009 µM
7 | CCn1nc(C(F)(F)F)cc1-c1ccc(Oc2ncc(S(=O)(=O)Nc3nccs3)cc2Cl)cc1 [Example 758, 5-chloro-6-{4-[1-ethyl-3-(trifluoromethyl)-1H-pyrazol-5-yl]phenoxy}-N-1,3-thiazol-2-ylpyridine-3-sulfonamide] | 0.21 µM
8 | Cn1nccc1-c1cc(Cl)ccc1Oc1ncc(S(=O)(=O)Nc2nccs2)cc1Cl [Example 759, 5-chloro-6-[4-chloro-2-(1-methyl-1H-pyrazol-5-yl)phenoxy]-N-1,3-thiazol-2-ylpyridine-3-sulfonamide] | 0.25 µM
9 | N#Cc1cc(S(=O)(=O)Nc2cscn2)ccc1Oc1ccc(Cl)cc1-c1ccnn1C1CCNCC1 [Example 760, 4-[4-chloro-2-(1-piperidin-4-yl-1H-pyrazol-5-yl)phenoxy]-3-cyano-N-1,3-thiazol-4-ylbenzenesulfonamide] | 0.088 µM
10 | N#Cc1cc(S(=O)(=O)Nc2cscn2)ccc1Oc1ccc(Cl)cc1-c1ccn(C2CCNCC2)n1 [Example 761, 4-[4-chloro-2-(1-piperidin-4-yl-1H-pyrazol-3-yl)phenoxy]-3-cyano-N-1,3-thiazol-4-ylbenzenesulfonamide] | 5.4 µM
11 | O=S(=O)(Nc1ncns1)c1cc(F)c(Oc2cc(F)c(Cl)cc2-c2ccn[nH]2)cc1F [Example 762, 4-[4-chloro-5-fluoro-2-(1H-pyrazol-5-yl)phenoxy]-2,5-difluoro-N-1,2,4-thiadiazol-5-ylbenzenesulfonamide] | 0.0042 µM
12 | N#Cc1cc(S(=O)(=O)Nc2ncns2)ccc1Oc1cc(F)c(Cl)cc1-c1ccn[nH]1 [Example 763, 4-[4-chloro-5-fluoro-2-(1H-pyrazol-5-yl)phenoxy]-3-cyano-N-1,2,4-thiadiazol-5-ylbenzenesulfonamide] | 0.034 µM
13 | O=S(=O)(Nc1nncs1)c1cc(Cl)c(Oc2ccc(C(F)(F)F)cc2-c2cn[nH]c2)cc1F [Example 764, 5-chloro-2-fluoro-4-[2-(1H-pyrazol-4-yl)-4-(trifluoromethyl)phenoxy]-N-1,3,4-thiadiazol-2-ylbenzenesulfonamide] | 0.03 µM
14 | O=S(=O)(Nc1nncs1)c1cc(Cl)c(Oc2ccc(Cl)cc2C2CCNCC2)cc1F [Example 765, 5-chloro-4-(4-chloro-2-piperidin-4-ylphenoxy)-2-fluoro-N-1,3,4-thiadiazol-2-ylbenzenesulfonamide] | 0.11 µM
15 | N#Cc1cc(S(=O)(=O)Nc2cscn2)ccc1Oc1ccc(Cl)cc1-c1cccc(N)n1 [Example 766, 4-[2-(6-aminopyridin-2-yl)-4-chlorophenoxy]-3-cyano-N-1,3-thiazol-4-ylbenzenesulfonamide] | 0.5 µM
16 | N#Cc1cc(S(=O)(=O)Nc2cscn2)ccc1Oc1ccc(Cl)cc1-c1cn[nH]c1 [Example 767, 4-[4-chloro-2-(1H-pyrazol-4-yl)phenoxy]-3-cyano-N-1,3-thiazol-4-ylbenzenesulfonamide] | 0.24 µM
17 | N#Cc1cc(S(=O)(=O)Nc2cscn2)ccc1Oc1cccc(Cc2cc[nH]n2)c1 [Example 768, 3-cyano-4-[3-(1H-pyrazol-3-ylmethyl)phenoxy]-N-1,3-thiazol-4-ylbenzenesulfonamide] | 11 µM
18 | CC(C)(C)n1ccc(Cc2cccc(Oc3ccc(S(=O)(=O)Nc4cscn4)cc3C#N)c2)n1 [Example 769, 4-{3-[(1-tert-butyl-1H-pyrazol-3-yl)methyl]phenoxy}-3-cyano-N-1,3-thiazol-4-ylbenzenesulfonamide] | 8.7 µM
19 | N#Cc1cc(S(=O)(=O)Nc2ccc(C(F)(F)F)cn2)ccc1Oc1ccccc1-c1ccccc1 [Example 770, 4-(biphenyl-2-yloxy)-3-cyano-N-[5-(trifluoromethyl)pyridin-2-yl]benzenesulfonamide] | 24 µM
20 | N#Cc1ccc(Oc2cc(F)c(S(=O)(=O)Nc3ncc(Cl)s3)cc2F)c(-c2cn[nH]c2)c1 [Example 771, N-(5-chloro-1,3-thiazol-2-yl)-4-[4-cyano-2-(1H-pyrazol-4-yl)phenoxy]-2,5-difluorobenzenesulfonamide] | 0.24 µM
21 | Cn1nccc1-c1cc(Cl)ccc1Oc1ccc(S(=O)(=O)Nc2ccc(C(F)(F)F)cn2)cc1C#N [Example 772, 4-[4-chloro-2-(1-methyl-1H-pyrazol-5-yl)phenoxy]-3-cyano-N-[5-(trifluoromethyl)pyridin-2-yl]benzenesulfonamide] | 31 µM
22 | O=S(=O)(Nc1ncns1)c1cc(Cl)c(Oc2cc(F)ccc2-c2ccn[nH]2)cc1F [Example 773, 5-chloro-2-fluoro-4-[5-fluoro-2-(1H-pyrazol-5-yl)phenoxy]-N-1,2,4-thiadiazol-5-ylbenzenesulfonamide] | 0.0069 µM
23 | N#Cc1cc(S(=O)(=O)Nc2nccs2)ccc1Oc1ccc(-n2cc(F)cn2)cc1 [Example 774, 3-cyano-4-[4-(4-fluoro-1H-pyrazol-1-yl)phenoxy]-N-1,3-thiazol-2-ylbenzenesulfonamide] | >1 µM
24 | CC(C)(C)n1nccc1-c1cc(Cl)ccc1Oc1ccc(S(=O)(=O)Nc2ncns2)cc1C#N [Example 775, 4-[2-(1-tert-butyl-1H-pyrazol-5-yl)-4-chlorophenoxy]-3-cyano-N-1,2,4-thiadiazol-5-ylbenzenesulfonamide] | 0.088 µM
25 | Cc1nnc(NS(=O)(=O)c2ccc(Oc3ccc(Cl)cc3-c3ccnn3C)c(F)c2)s1 [Example 776, 4-[4-chloro-2-(1-methyl-1H-pyrazol-5-yl)phenoxy]-3-fluoro-N-(5-methyl-1,3,4-thiadiazol-2-yl)benzenesulfonamide] | 2.5 µM
26 | O=S(=O)(Nc1cscn1)c1cc(Cl)c(Oc2ccc(Cl)cc2-c2cnn[nH]2)cc1F [Example 777, 5-chloro-4-[4-chloro-2-(1H-1,2,3-triazol-5-yl)phenoxy]-2-fluoro-N--thiazol-4-ylbenzenesulfonamide] | 1.3 µM
